{"source": "paper PMC7818428", "about": "“Potential Dental Biofilm Inhibitors: Dynamic Combinatorial Chemistry Affords Sugar‐Based Molecules that Target Bacterial Glucosyltransferase” (Chemmedchem, 2020)", "target": "T1, GTF180-ΔN (GTF180) (Limosilactobacillus reuteri, UniProt Q5SBN3)", "T1 construct": "N-terminally truncated GTF180-ΔN (catalytic and C-terminal domains), 117 kDa", "T1 sequence (Q5SBN3 entry or part of it, stated change not applied)": "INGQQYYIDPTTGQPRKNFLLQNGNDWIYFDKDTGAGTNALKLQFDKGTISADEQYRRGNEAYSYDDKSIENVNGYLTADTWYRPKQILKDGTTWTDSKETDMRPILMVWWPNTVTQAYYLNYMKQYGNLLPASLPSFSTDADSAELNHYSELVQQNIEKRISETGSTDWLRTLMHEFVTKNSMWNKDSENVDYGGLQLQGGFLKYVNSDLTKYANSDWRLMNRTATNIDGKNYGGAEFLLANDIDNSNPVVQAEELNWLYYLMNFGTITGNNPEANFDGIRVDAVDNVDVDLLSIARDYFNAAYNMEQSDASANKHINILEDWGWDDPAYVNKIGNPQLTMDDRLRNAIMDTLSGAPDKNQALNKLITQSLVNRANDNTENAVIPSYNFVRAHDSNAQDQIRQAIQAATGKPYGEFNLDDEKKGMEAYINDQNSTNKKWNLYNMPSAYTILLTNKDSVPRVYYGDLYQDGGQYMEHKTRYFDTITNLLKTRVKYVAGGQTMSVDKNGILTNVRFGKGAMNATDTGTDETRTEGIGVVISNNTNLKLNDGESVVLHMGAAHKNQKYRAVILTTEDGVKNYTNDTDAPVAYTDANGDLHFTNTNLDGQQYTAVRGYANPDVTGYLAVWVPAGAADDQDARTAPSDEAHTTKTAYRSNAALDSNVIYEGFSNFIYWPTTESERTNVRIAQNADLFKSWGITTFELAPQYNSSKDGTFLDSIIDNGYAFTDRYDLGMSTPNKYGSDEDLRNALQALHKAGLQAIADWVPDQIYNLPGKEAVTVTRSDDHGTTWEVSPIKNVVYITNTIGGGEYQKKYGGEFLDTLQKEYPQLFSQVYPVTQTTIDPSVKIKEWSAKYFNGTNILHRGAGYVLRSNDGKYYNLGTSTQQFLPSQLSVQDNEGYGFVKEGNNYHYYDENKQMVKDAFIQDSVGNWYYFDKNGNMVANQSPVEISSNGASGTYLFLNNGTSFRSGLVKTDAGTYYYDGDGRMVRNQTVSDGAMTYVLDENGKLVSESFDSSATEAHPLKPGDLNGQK", "assay": "UPLC-MS of dynamic combinatorial library (cleavage to A1H8)", "assay_type": "biochemical", "conditions": "30 μM protein, mixture of library members with 10 mM aniline, pH 5.2, 10 % DMSO, room temperature"}
{"smiles": "O=C(CC1CCCC1)N/N=C/c1ccc(O[C@@H]2O[C@H](CO)[C@@H](O[C@H]3O[C@H](CO)[C@@H](O)[C@H](O)[C@H]3O)[C@H](O)[C@H]2O)cc1", "note": "[A2H8]", "values": [{"measurement": "UPLC-MS of dynamic combinatorial library (cleavage to A1H8)", "result": "maltose‐derived acylhydrazones A2H2 and A2H8 with a lipophilic"}]}
